How the values were obtained:
Assay type in all cases: cell-based
[1] = tested on: human dermal fibroblasts from Parkinson's Disease patients; test: Rescue of BSO-stressed fibroblasts from Parkinson's Disease patients (Example D); details: Fibroblast, PD fibroblasts AG20439, screen as Example A, read-out: protection against PD, EC50
Description: The compounds were tested for their ability to rescue human dermal fibroblasts from Parkinson's Disease patients from oxidative stress.

[2] = tested on: human dermal fibroblasts from LHON patients; test: Rescue of BSO-stressed fibroblasts from LHON patients (Example C); details: Fibroblast, LHON fibroblasts GM03858, screen as Example A, read-out: protection against LHON, EC50
Description: The compounds were tested for their ability to rescue human dermal fibroblasts from LHON patients from oxidative stress.

[3] = tested on: human dermal fibroblasts from Huntington's patients; test: Rescue of BSO-stressed fibroblasts from Huntington's patients (Example B); details: Fibroblast, Huntington's fibroblasts GM 04281, screen as Example A, read-out: protection against Hungtington's, EC50
Description: The compounds were tested for their ability to rescue human dermal fibroblasts from Huntington's patients from oxidative stress.

[4] = tested on: Human dermal fibroblasts from Friedreich's Ataxia patients; test: Rescue of BSO-stressed FRDA fibroblasts (Example A); details: FRDA fibroblasts GM04078, 1 mM BSO, read-out: protection against FRDA, EC50
Description: Test samples, 4 reference compounds (idebenone, decylubiquinone, Trolox and α-tocopherol acetate), and solvent controls were tested for their ability to rescue FRDA fibroblasts stressed by addition of L-buthionine (S,R)-sulfoximine (BSO), as described in Jauslin et al., Hum. Mol. Genet. […] Mol. Genet. […] This specific BSO-mediated cell death can be prevented by administration of antioxidants or molecules involved in the antioxidant pathway, such as α-tocopherol, selenium, or small molecule glutathione peroxidase mimetics. However, antioxidants differ in their potency, i.e. the concentration at which they are able to rescue BSO-stressed FRDA fibroblasts.
Fetal Calf Serum was obtained from PAA Laboratories. Basic fibroblast growth factor and epidermal growth factor were purchased from PeproTech. Penicillin-streptomycin-glutamine mix, L-buthionine (S,R)-sulfoximine, (+)-α-tocopherol acetate, decylubiquinone, and insulin from bovine pancreas were purchased from Sigma. Trolox (6-Hydroxy-2,5,7,8-tetramethylchroman-2-carboxylic acid) was obtained from Fluka. Idebenone was obtained from Chemo Iberica. Calcein AM was purchased from Molecular Probes. Cell culture medium was made by combining 125 ml M199 EBS, 50 ml Fetal Calf Serum, 100 U/ml penicillin, 100 μg/ml streptomycin, 2 mM glutamine, 10 μg/ml insulin, 10 ng/ml EGF, and 10 ng/ml bFGF; MEM EBS was added to make the volume up to 500 ml. […] During the course of the experiments, this solution was stored at +4° C. The cells were obtained from the Coriell Cell Repositories (Camden, NJ; repository number GM04078) and grown in 10 cm tissue culture plates. Every third day, they were split at a 1:3 ratio.
The test samples were supplied in 1.5 ml glass vials. […] Once dissolved, they were stored at −20° C. Reference antioxidants (idebenone, decylubiquinone, α-tocopherol acetate and trolox) were dissolved in DMSO.
Test samples were screened according to the following protocol: A culture with FRDA fibroblasts was started from a 1 ml vial with approximately 500,000 cells stored in liquid nitrogen. […] Once confluent, fibroblasts were harvested. […] The remaining cells were distributed in 10 cm cell culture plates (500,000 cells/plate) for propagation. The plates were incubated overnight at 37° C. in a atmosphere with 95% humidity and 5% CO2 to allow attachment of the cells to the culture plate.
MTP medium (243 μl) was added to a well of the microtiter plate. […] Serial dilutions from the master solution were made. The period between the single dilution steps was kept as short as possible (generally less than 1 second).
Plates were kept overnight in the cell culture incubator. The next day, 10 μl of a 10 mM BSO solution were added to the wells, resulting in a 1 mM final BSO concentration. Forty-eight hours later, three plates were examined under a phase-contrast microscope to verify that the cells in the 0% control (wells E1-H1) were clearly dead. The medium from all plates was discarded, and the remaining liquid was removed by gently tapping the plate inversed onto a paper towel.
The plates were incubated for 50-70 minutes at room temperature. After that time the PBS was discarded, the plate gently tapped on a paper towel and fluorescence (excitation/emission wavelengths of 485 nm and 525 nm, respectively) was read on a Gemini fluorescence reader. Data was imported into Microsoft Excel (EXCEL is a registered trademark of Microsoft Corporation for a spreadsheet program) and used to calculate the EC50 concentration for each compound.
The compounds were tested three times, i.e., the experiment was performed three times, the passage number of the cells increasing by one with every repetition.
The viability of non-BSO treated fibroblasts was set as 100%, and the viability of the BSO- and compound-treated cells was calculated as relative to this value.

[5] = tested on: human dermal fibroblasts from CoQ10 deficient patients; test: Rescue of stressed fibroblasts from CoQ10 deficient patients (Example E); details: Fibroblast, fibroblasts harboring a CoQ2 mutation, screen similar to Example A, read-out: protection against CoQ10 deficiency, EC50
Description: Compounds of the invention were tested using a screen similar to the one described in Example A, but substituting FRDA cells with cells obtained from CoQ10 deficient patients harboring a CoQ2 mutation.

Measured: EC50

CC1=C(C)C(=O)C(CCC(C)(O)C(=O)NC(C)C)=C(C)C1=O (stereo not drawn) [2-hydroxy-N-isopropyl-2-methyl-4-(2,4,5-trimethyl-3,6-dioxocyclohexa-1,4-dienyl)butanamide]
< 100 nM: [1]

CC1=C(C)C(=O)C(CCC(C)(O)C(=O)N2CCN(Cc3ccccc3)CC2)=C(C)C1=O (stereo not drawn) [Example 15, 2-(4-(4-Benzylpiperazin-1-yl)-3-hydroxy-3-methyl-4-oxobutyl)-3,5,6-trimethylcyclohexa-2,5-diene-1,4-dione]
not listed: [5]
< 100 nM: all other assays above

CC1=C(C)C(=O)C(CCC(C)(O)C(=O)NCCO)=C(C)C1=O (stereo not drawn) [Example 20, 2-Hydroxy-N-(2-hydroxyethyl)-2-methyl-4-(2,4,5-trimethyl-3,6-dioxocyclohexa-1,4-dienyl)butanamide]
< 100 nM: all assays above

CC1=C(C)C(=O)C(CCC(C)(O)C(=O)NCCCn2ccnc2)=C(C)C1=O (stereo not drawn) [Example 23, N-(3-(1H-imidazol-1-yl)propyl)-2-hydroxy-2-methyl-4-(2,4,5-trimethyl-3,6-dioxocyclohexa-1,4-dienyl)butanamide]
< 100 nM: [1] | [3] | [4]

CC1=C(C)C(=O)C(CC[C@@](C)(O)C(=O)NCCO)=C(C)C1=O [Example 24, (R)-2-Hydroxy-N-(2-hydroxyethyl)-2-methyl-4-(2,4,5-trimethyl-3,6-dioxocyclohexa-1,4-dienyl)butanamide]
< 100 nM: [1] | [3] | [4]

CC1=C(C)C(=O)C(CCC(C)(O)C(=O)NCCOCCO)=C(C)C1=O (stereo not drawn) [Example 25, 2-Hydroxy-N-(2-(2-hydroxyethoxy)ethyl)-2-methyl-4-(2,4,5-trimethyl-3,6-dioxocyclohexa-1,4-dienyl)butanamide]
not listed: [5]
< 100 nM: all other assays above

CC1=C(C)C(=O)C(CC[C@](C)(O)C(=O)NCCO)=C(C)C1=O [Example 28, (S)-2-hydroxy-N-(2-hydroxyethyl)-2-methyl-4-(2,4,5-trimethyl-3,6-dioxocyclohexa-1,4-dienyl)butanamide]
< 100 nM: [1] | [3] | [4]

CC1=C(C)C(=O)C(CCC(C)(O)C(=O)NCCc2ccc(O)cc2)=C(C)C1=O (stereo not drawn) [Example 36, N-(4-Hydroxyphenethyl)-2-hydroxy-2-methyl-4-(2,4,5-trimethyl-3,6-dioxocyclohexa-1,4-dienyl)butanamide]
not listed: [5]
< 100 nM: all other assays above

CC1=C(C)C(=O)C(CCC(C)(O)C(=O)NCCN(C)C)=C(C)C1=O (stereo not drawn) [Example 37, N-(2-(Dimethylamino)ethyl)-2-hydroxy-2-methyl-4-(2,4,5-trimethyl-3,6-dioxocyclohexa-1,4-dienyl)butanamide]
< 100 nM: all assays above

CC1=C(C)C(=O)C(CCC(C)(O)C(=O)NCCCN(C)C)=C(C)C1=O (stereo not drawn) [Example 40, N-(3-(Dimethylamino)propyl)-2-hydroxy-2-methyl-4-(2,4,5-trimethyl-3,6-dioxocyclohexa-1,4-dienyl)butanamide]
< 100 nM: [1] | [3] | [4]

CC1=C(C)C(=O)C(CCC(C)(O)C(=O)Nc2ccc(F)cc2)=C(C)C1=O (stereo not drawn) [N-(4-fluorophenyl)-2-hydroxy-2-methyl-4-(2,4,5-trimethyl-3,6-dioxocyclohexa-1,4-dienyl)butanamide]
not listed: [1]
< 100 nM: all other assays above
